Laboratory results published in PubChem BioAssay (NCI).
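Protocol summary: plate cells (96-well), add compound at 5 concentrations, incubate 48 h, interpolate endpoints linearly. Abbreviation: GI50, concentration required for 50% inhibition of growth. TGI denotes the concentration required for complete inhibition of growth.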

How the values were obtained:
Experiment in all cases: growth of human tumour cells (NCI), 48 h
HOP-62 NSCLC = system: HOP-62 NSCLC
SNB-78 CNS = system: SNB-78 CNS
786-0 renal = system: 786-0 renal
HCC-2998 colon = system: HCC-2998 colon
OVCAR-5 ovarian = system: OVCAR-5 ovarian
MOLT-4 leukemia = system: MOLT-4 leukemia
ACHN renal = system: ACHN renal
UACC-257 melanoma = system: UACC-257 melanoma
SK-MEL-28 melanoma = system: SK-MEL-28 melanoma
KM20L2 colon = system: KM20L2 colon
IGROV1 ovarian = system: IGROV1 ovarian
OVCAR-4 ovarian = system: OVCAR-4 ovarian
SK-MEL-2 melanoma = system: SK-MEL-2 melanoma
M19-MEL melanoma = system: M19-MEL melanoma
UACC-62 melanoma = system: UACC-62 melanoma
SF-295 CNS = system: SF-295 CNS
NCI-H23 lung = system: NCI-H23 lung
A549 NSCLC = system: A549 NSCLC
A498 renal = system: A498 renal
NCI-H522 lung = system: NCI-H522 lung
SK-MEL-5 melanoma = system: SK-MEL-5 melanoma
U251 CNS = system: U251 CNS
HT29 colon = system: HT29 colon
SW-620 colon = system: SW-620 colon
HL-60(TB) leukemia = system: HL-60(TB) leukemia
MALME-3M melanoma = system: MALME-3M melanoma
OVCAR-3 ovarian = system: OVCAR-3 ovarian
LOX IMVI melanoma = system: LOX IMVI melanoma
M14 melanoma = system: M14 melanoma
DLD-1 colon = system: DLD-1 colon
HOP-92 NSCLC = system: HOP-92 NSCLC
KM12 colon = system: KM12 colon
SNB-19 CNS = system: SNB-19 CNS
CCRF-CEM leukemia = system: CCRF-CEM leukemia
HCT-116 colon = system: HCT-116 colon
UO-31 renal = system: UO-31 renal
COLO 205 colon = system: COLO 205 colon
SF-268 CNS = system: SF-268 CNS
SF-539 CNS = system: SF-539 CNS
HCT-15 colon = system: HCT-15 colon
RPMI-8226 leukemia = system: RPMI-8226 leukemia
SK-OV-3 ovarian = system: SK-OV-3 ovarian
EKVX NSCLC = system: EKVX NSCLC
SN12C renal = system: SN12C renal
TK-10 renal = system: TK-10 renal
K-562 leukemia = system: K-562 leukemia
OVCAR-8 ovarian = system: OVCAR-8 ovarian
LXFL 529 NSCLC = system: LXFL 529 NSCLC
SNB-75 CNS = system: SNB-75 CNS
NCI-H460 lung = system: NCI-H460 lung
DMS 114 small cell lung = system: DMS 114 small cell lung
RXF 393 renal = system: RXF 393 renal
SR leukemia = system: SR leukemia

## NCCN.O=C([O-])C(=O)[O-].O=C([O-])C(=O)[O-].[Co+3].[K+]
HOP-62 NSCLC
  GI50: > 100 µM
  TGI: > 100 µM
SNB-78 CNS
  GI50: > 100 µM
  TGI: > 100 µM
786-0 renal
  GI50: > 100 µM
  TGI: > 100 µM
HCC-2998 colon
  GI50: > 100 µM
  TGI: > 100 µM
OVCAR-5 ovarian
  GI50: > 100 µM
  TGI: > 100 µM
MOLT-4 leukemia
  GI50: > 100 µM
  TGI: > 100 µM
ACHN renal
  GI50: > 100 µM
  TGI: > 100 µM
UACC-257 melanoma
  GI50: > 100 µM
  TGI: > 100 µM
SK-MEL-28 melanoma
  GI50: > 100 µM
  TGI: > 100 µM
KM20L2 colon
  GI50: > 100 µM
  TGI: > 100 µM
IGROV1 ovarian
  GI50: > 100 µM
  TGI: > 100 µM
OVCAR-4 ovarian
  GI50: > 100 µM
  TGI: > 100 µM
SK-MEL-2 melanoma
  GI50: > 100 µM
  TGI: > 100 µM
M19-MEL melanoma
  GI50: > 100 µM
  TGI: > 100 µM
UACC-62 melanoma
  GI50: > 100 µM
  TGI: > 100 µM
SF-295 CNS
  GI50: > 100 µM
  TGI: > 100 µM
NCI-H23 lung
  GI50: > 100 µM
  TGI: > 100 µM
A549 NSCLC
  GI50: > 100 µM
  TGI: > 100 µM
A498 renal
  GI50: > 100 µM
  TGI: > 100 µM
NCI-H522 lung
  GI50: 92.4 µM
  TGI: > 100 µM
SK-MEL-5 melanoma
  GI50: > 100 µM
  TGI: > 100 µM
U251 CNS
  GI50: > 100 µM
  TGI: > 100 µM
HT29 colon
  GI50: > 100 µM
  TGI: > 100 µM
SW-620 colon
  GI50: > 100 µM
  TGI: > 100 µM
HL-60(TB) leukemia
  GI50: > 100 µM
  TGI: > 100 µM
MALME-3M melanoma
  GI50: > 100 µM
  TGI: > 100 µM
OVCAR-3 ovarian
  GI50: > 100 µM
  TGI: > 100 µM
LOX IMVI melanoma
  GI50: > 100 µM
  TGI: > 100 µM
M14 melanoma
  GI50: > 100 µM
  TGI: > 100 µM
DLD-1 colon
  GI50: > 100 µM
  TGI: > 100 µM
HOP-92 NSCLC
  GI50: > 100 µM
  TGI: > 100 µM
KM12 colon
  GI50: > 100 µM
  TGI: > 100 µM
SNB-19 CNS
  GI50: > 100 µM
  TGI: > 100 µM
CCRF-CEM leukemia
  GI50: > 100 µM
  TGI: > 100 µM
HCT-116 colon
  GI50: > 100 µM
  TGI: > 100 µM
UO-31 renal
  GI50: > 100 µM
  TGI: > 100 µM
COLO 205 colon
  GI50: > 100 µM
  TGI: > 100 µM
SF-268 CNS
  GI50: > 100 µM
  TGI: > 100 µM
SF-539 CNS
  GI50: > 100 µM
  TGI: > 100 µM
HCT-15 colon
  GI50: > 100 µM
  TGI: > 100 µM
RPMI-8226 leukemia
  GI50: > 100 µM
  TGI: > 100 µM
SK-OV-3 ovarian
  GI50: > 100 µM
  TGI: > 100 µM
EKVX NSCLC
  GI50: > 100 µM
  TGI: > 100 µM
SN12C renal
  GI50: > 100 µM
  TGI: > 100 µM
TK-10 renal
  GI50: > 100 µM
  TGI: > 100 µM
K-562 leukemia
  GI50: > 100 µM
  TGI: > 100 µM
OVCAR-8 ovarian
  GI50: > 100 µM
  TGI: > 100 µM
LXFL 529 NSCLC
  GI50: > 100 µM
  TGI: > 100 µM
SNB-75 CNS
  GI50: > 100 µM
  TGI: > 100 µM
NCI-H460 lung
  GI50: > 100 µM
  TGI: > 100 µM
DMS 114 small cell lung
  GI50: > 100 µM
  TGI: > 100 µM

## COc1cc2ccc1NC(=O)N1CCN(CC1)C(=O)Nc1ccc(cc1OC)-c1ccc(c(OC)c1)NC(=O)N1CCN(CC1)C(=O)Nc1ccc-2cc1OC
HOP-62 NSCLC
  TGI: > 100 µM
SNB-78 CNS
  TGI: > 100 µM
RXF 393 renal
  TGI: > 100 µM
HCC-2998 colon
  TGI: > 100 µM
MOLT-4 leukemia
  TGI: > 100 µM
ACHN renal
  TGI: > 100 µM
UACC-257 melanoma
  TGI: > 100 µM
SK-MEL-28 melanoma
  TGI: > 100 µM
IGROV1 ovarian
  TGI: > 100 µM
OVCAR-4 ovarian
  TGI: > 100 µM
SK-MEL-2 melanoma
  TGI: > 100 µM
M19-MEL melanoma
  TGI: > 100 µM
UACC-62 melanoma
  TGI: > 100 µM
SF-295 CNS
  TGI: > 100 µM
NCI-H23 lung
  TGI: > 100 µM
A498 renal
  TGI: > 100 µM
NCI-H522 lung
  TGI: > 100 µM
HT29 colon
  TGI: > 100 µM
OVCAR-3 ovarian
  TGI: > 100 µM
M14 melanoma
  TGI: > 100 µM
HOP-92 NSCLC
  TGI: > 100 µM
KM12 colon
  TGI: > 100 µM
SNB-19 CNS
  TGI: > 100 µM
CCRF-CEM leukemia
  TGI: > 100 µM
HCT-116 colon
  TGI: > 100 µM
UO-31 renal
  TGI: > 100 µM
COLO 205 colon
  TGI: > 100 µM
SR leukemia
  TGI: > 100 µM
SF-268 CNS
  TGI: > 100 µM
SF-539 CNS
  TGI: > 100 µM
RPMI-8226 leukemia
  TGI: > 100 µM
SK-OV-3 ovarian
  TGI: > 100 µM
K-562 leukemia
  TGI: > 100 µM
LXFL 529 NSCLC
  TGI: > 100 µM
SNB-75 CNS
  TGI: > 100 µM
NCI-H460 lung
  TGI: > 100 µM
DMS 114 small cell lung
  TGI: > 100 µM
